In PMC4292804 (Journal of pharmacokinetics and pharmacodynamics, 2013):
Read-outs that look alike come from different tables or passages of the source.

Key:
[1] = PBPK model of docetaxel: simulations and parameter estimation; parameters: species or system mice; conditions: for % Difference between observed FVB AUC and predicted FVB AUC / % Difference between observed KO AUC and predicted KO AUC: 100 × (predicted − observed)/observed
CYP3A4 [2] = conditions: cited from earlier work
ABCB1 [3] = experiment: PBPK model: saturable ABCB1; parameters: species or system mice; conditions: value (SD) by parameter estimation, FVB data
ABCB1 [4] = conditions: homozygous 1236C > T polymorphism in the ABCB1 gene; cited from earlier work
[5] = Docetaxel pharmacokinetic; conditions: 3 mg/kg i.v.
tubulin [6] = conditions: determined for colchicine, used for docetaxel; cited from earlier work
[7] = Docetaxel pharmacokinetic; assay type: in vivo, mice; conditions: for AUC: FVB, mouse, iv, 3 mg/kg
[8] = cited from earlier work
[9] = both FVB and KO mice; intravenous; cannulated gallbladder; cited from earlier work
tubulin [10] = conditions: higher than paclitaxel; cited from earlier work
CYP3A4 [11] = conditions: PBPK model parameter, KO mouse model; scaled from in vitro Vmax of ref 27
[12] = ref Kemper et al. 46; cited from earlier work
[13] = Mdr1a/b constitutive knockout (KO), mouse, in vivo, iv, 3 mg/kg, 12 h
CYP3A4 [14] = conditions: cited from earlier work; remark: listed apart in the source
[15] = value (SD) by parameter estimation, FVB and KO data

CC(=O)O[C@@]12CO[C@@H]1C[C@H](O)[C@@]1(C)C(=O)[C@H](O)C3=C(C)[C@@H](OC(=O)[C@H](O)[C@@H](NC(=O)OC(C)(C)C)c4ccccc4)C[C@@](O)([C@@H](OC(=O)c4ccccc4)[C@H]21)C3(C)C [docetaxel, Docetaxel]
FVB tubular reabsorption rate constant (K_RABS_fvb) ([1]; FVB, value (SD) by parameter estimation): 0.02 (0.001) h^−1 | KO tubular reabsorption rate constant (K_RABS_ko) ([1]; KO, value (SD) by parameter estimation): 1.8 (0.001) h^−1 | % Difference between observed FVB AUC and predicted FVB AUC ([1]; brain): −4.3% | % Difference between observed KO AUC and predicted KO AUC ([1]; brain): +14.8% | % Difference between observed FVB AUC and predicted FVB AUC ([1]; heart): −11.3% | % Difference between observed KO AUC and predicted KO AUC ([1]; heart): +2.9% | First-order liver metabolism rate constant (K_LMET) ([1]; hepatic CYP3A4 metabolism, value (SD) by parameter estimation): 3,664 (1.444) h^−1 | First-order FVB intestine metabolism rate constant (K_IMET_fvb) ([1]; intestinal CYP3A4 metabolism, FVB, value (SD) by parameter estimation): 19 (0.008) h^−1 | % Difference between observed FVB AUC and predicted FVB AUC ([1]; intestine): −3.1% | % Difference between observed KO AUC and predicted KO AUC ([1]; intestine): +0.2% | % Difference between observed FVB AUC and predicted FVB AUC ([1]; kidney): +6.3% | % Difference between observed KO AUC and predicted KO AUC ([1]; kidney): −0.7% | % Difference between observed FVB AUC and predicted FVB AUC ([1]; liver): −8.6% | % Difference between observed KO AUC and predicted KO AUC ([1]; liver): +3.0% | % Difference between observed FVB AUC and predicted FVB AUC ([1]; lung): −7.9% | % Difference between observed KO AUC and predicted KO AUC ([1]; lung): +5.1% | % Difference between observed FVB AUC and predicted FVB AUC ([1]; plasma): −2.9% | % Difference between observed KO AUC and predicted KO AUC ([1]; plasma): +14.8% | Tubulin binding capacity, Slowly perfused (TB_sp) ([1]; value (SD) by parameter estimation): 521 (0.231) nmol/kg | Partition coefficient FVB intestine:plasma (P_int_fvb) ([1]; value (SD) by parameter estimation, FVB): 195 (0.008) Ratio | Partition coefficient Brain:plasma (P_brn) [1, 15]: 58 (0.013) Ratio | Partition coefficient Heart:plasma (P_hrt) [1, 15]: 990 (0.231) Ratio | Partition coefficient Kidney:plasma (P_kid) [1, 15]: 995 (0.222) Ratio | Partition coefficient Liver:plasma (P_liv) [1, 15]: 7,088 (1.653) Ratio | Partition coefficient Lung:plasma (P_lng) [1, 15]: 2,376 (0.546) Ratio | Partition coefficient Slowly perfused:plasma (P_sp) [1, 15]: 748 (0.174) Ratio | Partition coefficient KO intestine:plasma (P_int_ko) ([1]; value (SD) by parameter estimation, KO): 397 (33.970) Ratio | Docetaxel cleared from plasma relative to wild-type mice (CYP3A4 [2]; mice with CYP3A4 expression in only the intestine): 21% | Docetaxel metabolites M1–4 recovered in the small intestine relative to wild-type mice (CYP3A4 [2]; transgenic mice with no CYP3A4 expression in the liver): 13.5% | PGP transport Brain Vmax (VMAXT_brn) (ABCB1 [3]): 14,581 (3.232) nmol/h/kg | PGP transport Heart Vmax (VMAXT_hrt) (ABCB1 [3]): 14,599 (3.449) nmol/h/kg | PGP transport Kidney Vmax (VMAXT_kid) (ABCB1 [3]): 3,003 (0.012) nmol/h/kg | PGP transport Km (KMT) (ABCB1 [3]): 28 (0.007) nmol/kg | PGP transport Lung Vmax (VMAXT_lng) (ABCB1 [3]): 340,176 (13.151) nmol/h/kg | PGP transport Slowly perfused Vmax (VMAXT_sp) (ABCB1 [3]): 10 (0.002) nmol/h/kg | Decrease in docetaxel clearance (ABCB1 [4]): 25% | Increase in docetaxel concentration in the liver of KO versus FVB mice ([5]; 12 h): 59% | Docetaxel plasma concentrations, FVB versus KO mice ([5]; during the study (1–12 h)): did not note differences | Docetaxel tissue concentration, KO versus FVB mice ([5]; lung, kidney, heart, intestine and brain at 2, 4, 8 and 12 h): statistically significant increase | Tubulin binding capacity, Brain (TB_brn) (tubulin [6]): 10,710 nmol/kg | Tubulin binding capacity, Heart (TB_hrt) (tubulin [6]): 1,970 nmol/kg | Tubulin binding capacity, Intestine (TB_int) (tubulin [6]): 1,080 nmol/kg | Tubulin binding capacity, Kidney (TB_kid) (tubulin [6]): 1,470 nmol/kg | Tubulin binding capacity, Liver (TB_liv) (tubulin [6]): 3,510 nmol/kg | Tubulin binding capacity, Lung (TB_lng) (tubulin [6]): 2,580 nmol/kg | Unchanged docetaxel recovered in the feces ([7]; FVB mice, 12 h, 3 mg/kg i.v.): less than 1.5 % of the administered dose | AUC ([7]; brain): 0.184 µM·h | AUC ([7]; heart): 13 µM·h | AUC ([7]; intestine): 3.21 µM·h | AUC ([7]; kidney): 14.5 µM·h | AUC ([7]; liver): 4.34 µM·h | AUC ([7]; lung): 18.9 µM·h | AUC ([7]; plasma): 0.523 µM·h | Bound to plasma proteins [8]: 93% | Fraction of docetaxel unbound to plasma proteins (FU) ([8]; unbound fraction in the blood): 0.07 | Unchanged drug recovered in the bile [9]: 3–4 % of the dose | Binding affinity relative to paclitaxel (tubulin [10]): approximately 1.9 fold | Saturable KO intestine metabolism Vmax (VMAXM_int_ko) (CYP3A4 [11]): 2,654 nmol/h/kg | Increase in docetaxel exposure in the brain, KO versus FVB mice [12]: +516% | Unchanged docetaxel recovered in the feces [13]: less than 1.5 % of the administered dose | Vmax for CYP3A4 metabolism of docetaxel to M2 (CYP3A4 [14]; in vitro): 14 pmol/min/mg microsomal protein | Km (CYP3A4 [14]; read-out: Km for CYP3A4 metabolism of docetaxel to M2): 0.6 µM
